Experimental data: PubChem BioAssay AID602191 (Broad Institute, 2012)
Calls of active or inactive are those of the source.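 Rule for the calls: active = fitted curve reaches 40% activation at a concentration no higher than the top valid tested dose; inconclusive = flat fit between 30% and 70% activation, or poor fit; inactive = uptake decrease, flat fit within 30% of zero, the rest.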

These compounds were tested against Scavenger receptor class B member 1 (Mus musculus) (UniProt Q61009) (assay: activators of SR-BI-mediated HDL uptake, dose response, cell-based, ldlA[mSR-BI] CHO, DiI fluorescence, cherry-pick (AID 602191;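 note: cell fluorescence from internalized DiI-labeled HDL after washing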;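 for AC40: potency of activators raising HDL uptake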;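 for activation (HDL uptake increase): 0% = median of DMSO wells and 100% = twice the DMSO signal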)). Conditions: ldlA[mSR-BI] CHO cells, 3 h.
Scavenger receptor class B member 1 (Mus musculus), sequence (Q61009 whole entry, looked up): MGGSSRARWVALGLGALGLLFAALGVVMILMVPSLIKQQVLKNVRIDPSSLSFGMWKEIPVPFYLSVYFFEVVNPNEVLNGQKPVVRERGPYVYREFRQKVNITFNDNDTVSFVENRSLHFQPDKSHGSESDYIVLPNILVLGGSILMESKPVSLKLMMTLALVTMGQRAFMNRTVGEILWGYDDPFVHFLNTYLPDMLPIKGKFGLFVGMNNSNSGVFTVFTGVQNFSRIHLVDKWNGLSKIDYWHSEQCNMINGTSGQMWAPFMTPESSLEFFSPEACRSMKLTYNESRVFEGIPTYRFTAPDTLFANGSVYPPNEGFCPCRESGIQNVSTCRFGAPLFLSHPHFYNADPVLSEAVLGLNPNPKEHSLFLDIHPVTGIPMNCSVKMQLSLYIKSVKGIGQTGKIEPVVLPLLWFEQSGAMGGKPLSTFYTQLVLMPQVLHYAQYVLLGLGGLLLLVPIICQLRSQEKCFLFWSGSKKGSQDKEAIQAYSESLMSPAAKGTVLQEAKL

Compound | AC40
COc1ccc(CC(=O)N(C)Cc2ccc(C(C)(C)C)cc2)cc1S(=O)(=O)N1CCOCC1 | > 35 µM (inactive)

Same assay, conditions: ldlA[mSR-BI] CHO cells, 3 h, at 35 µM (top of the series)

Compound | activation (HDL uptake increase)
CCN(CC)C(=O)C1CC(=O)N(c2ccc(OC)cc2)C1c1ccc(OC)cc1 (stereo not given) | -8.42% (inactive)
Cc1ccc(NC(=O)CSc2nc3nc(C)c(Br)cc3[nH]2)cc1F | -7.04% (inactive)
COc1ccccc1NC(=O)CCN1CCCCCC1 | -12.4% (inactive)
Cc1ccc2nc(N(CCCN(C)C)C(=O)c3ccc(S(=O)(=O)N4CCOCC4)cc3)sc2c1 | -2.75% (inactive)
COc1cccc(/C=N/n2c(SC)nnc2-c2ccccc2)c1O | -1.1% (inactive)
CCN1CCN(C(c2cccc(OC)c2)c2sc3nc(C)nn3c2O)CC1 (stereo not given) | -1.19% (inactive)
CC(C)(C)SCCNC(=O)c1ccc(Cl)c([N+](=O)[O-])c1 | -10.4% (inactive)
CC(C)COC(=O)Cc1c(O)c2ccccc2[nH]c1=O | -2.53% (inactive)
CCc1ccc(C(=O)CN2C(=O)NC(C)(CCc3ccccc3)C2=O)cc1 (stereo not given) | -8.25% (inactive)
Clc1ccc2nc(CN3CCCCCC3)cn2c1 | 0.923% (inactive)
CCCCC/C=C\C[C@H](O)/C=C/c1cccc(C[C@H](O)CCCCO)n1 | -14% (inactive)
C[C@H](CO)N1C[C@H](C)[C@H](CN(C)Cc2ccc(-c3ccccc3)cc2)Oc2ccc(NS(=O)(=O)c3ccccc3)cc2CC1=O | 44.6% (inactive)
Cc1nn(-c2ccccc2)nc1CNC(=O)C(C)Cc1ccccc1 (stereo not given) | -12.5% (inactive)
CC(C)C[C@H]1CNC(=S)N1CC1CCCN1C[C@H](Cc1ccccc1)N1C[C@H](Cc2ccc(O)cc2)N(CC2CCCCC2)C1=S (stereo not given in full) | -0.934% (inactive)
Cn1nnnc1SCCNC(=O)C1CCC(=O)N(Cc2ccccc2F)C1 (stereo not given) | -10.7% (inactive)
COc1ccc(NC(=O)N(C)C[C@H]2Oc3c(NC(=O)c4ccncc4)cccc3C(=O)N([C@H](C)CO)C[C@@H]2C)cc1 | -11.2% (inactive)
CCOC(=O)c1c(NC(=O)C2COc3ccccc3O2)sc2c1CC(C)(C)NC2(C)C (stereo not given) | -5.51% (inactive)
CCCCN(C(=O)c1cc2c(s1)CCC2)c1c(N)n(CC(C)C)c(=O)[nH]c1=O | -6.82% (inactive)
NCCCC[C@H]1CNC(=O)C(=O)N1CCc1cc(C(F)(F)F)cc(C(F)(F)F)c1 | 6.34% (inactive)
O=C(NNC(=S)Nc1cccc2ccccc12)c1cccc(Br)c1 | -30.7% (inactive)
CC(C)CC(=O)c1c(O)c(C=O)c(O)c2c1O[C@@]1(C)[C@@H](C2)C[C@H]2C[C@@H]1C2(C)C | -25.2% (inactive)
C=C1[C@@H](OC(C)=O)[C@]23C[C@@H]1[C@@H](OC(C)=O)CC2[C@]12C4C[C@H]3[C@H]1N(CC)C[C@]4(C)CC[C@@H]2O (stereo not given in full) | -3.15% (inactive)
CC(C)C[C@@H](CN1CCCC1CN1C(=S)NC[C@@H]1Cc1ccc(O)cc1)N1C[C@H](Cc2ccc(O)cc2)N(CC2CCCCCC2)C1=S (stereo not given in full) | 1.49% (inactive)
COCCN(Cc1nnc(-c2cccs2)o1)C(=O)c1cccc(S(=O)(=O)N2CCOCC2)c1 | -7.49% (inactive)
O=C(CNC(=O)c1ccc(Cl)cc1Cl)OCC(=O)N1CCCC1 | -11.8% (inactive)
Cc1cc(NC(=O)CN2C(=O)NC(C)(c3ccc(OC(F)F)cc3)C2=O)no1 (stereo not given) | -7.97% (inactive)
CCOC(=O)c1csc(NC(=O)CN2CCN(C)CC2)n1 | 10.4% (inactive)

Compound | activation (HDL uptake increase)
CC1Cc2cc(/C(O)=C3/C(=O)C(=O)N(CCN4CCOCC4)C3c3ccc([N+](=O)[O-])cc3)ccc2O1 (stereo not given) | 13.1% (inactive)
CCOc1cc(N2CCOCC2)c(OCC)cc1NC(=O)CSc1cccc[n+]1[O-] | -6.79% (inactive)
CCCCC(=O)OCC(=O)C1(O)Cc2c(O)c3c(c(O)c2C(OC2CC(NC(=O)C(F)(F)F)C(O)C(C)O2)C1)C(=O)c1c(OC)cccc1C3=O (stereo not given) | 16.6% (inactive)
COc1ccc2cnnc(SCC(=O)Nc3ccc(C(C)=O)cc3)c2c1OC | -18.2% (inactive)
CN(C(=O)c1ccccc1Cl)c1ccccc1C(=O)NCc1ccccc1 | -10.9% (inactive)
Nc1nonc1-n1nnc(C(=O)N/N=C/c2cccs2)c1CSc1ccccc1 | -1.92% (inactive)
CC1(C)CC(=O)C2=C(C1)N(CC1CCCO1)C(=O)C2(O)C(F)(F)F (stereo not given) | 8.29% (inactive)
C[C@@H]1CN([C@H](C)CO)C(=O)c2cc(NC(=O)Nc3ccc(C(F)(F)F)cc3)ccc2O[C@H]1CN(C)S(=O)(=O)c1ccc(Cl)cc1 | 5.12% (inactive)
COC(=O)c1ccc([C@@H](O)[C@H](C)C(=O)CC(=O)OC(C)(C)C)cc1 | 4.09% (inactive)
CCN1CCN(C(=O)CCc2nc3ccccc3c(=O)[nH]2)CC1 | 9.34% (inactive)
CCO[C@H]1OC(C(=O)N2CCOCC2)=C[C@@H](c2ccccc2)[C@@H]1CCCO | -6.57% (inactive)
O=C(CN1CCN(S(=O)(=O)c2ccc(Cl)s2)CC1)NCc1ccc(Cl)cc1 | -4.32% (inactive)
NCCc1nnc(SCc2ccccc2)o1 | 5.16% (inactive)
O=C1[C@H]2[C@@H](c3ccc(F)cc3)N3C(=O)N(c4ccc(Br)cc4)C(=O)[C@@]3(Cc3ccccc3)[C@H]2C(=O)N1C1CCCCC1 | 6.23% (inactive)
CCOC(=O)C1=C(COC(=O)[C@H](C)NS(=O)(=O)c2ccc(NC(C)=O)cc2)NC(=O)NC1C (stereo not given in full) | -9.73% (inactive)
CC(Sc1ccc(S(=O)(=O)N(C)C)cn1)C(=O)NC1CCCC1 (stereo not given) | -1.21% (inactive)
O=C(COC(=O)c1cccs1)Nc1cccc(Cl)c1 | -3.43% (inactive)
COc1ccccc1NC(=O)CCC(=O)OCc1cccc([N+](=O)[O-])c1 | -10.7% (inactive)
COc1ccc(N2CCN(c3oc(-c4ccco4)nc3C#N)CC2)cc1 | 1.24% (inactive)
Cc1nn(CC(=O)OC(C)C(=O)Nc2ccccc2[N+](=O)[O-])c(C)c1[N+](=O)[O-] (stereo not given) | -9.77% (inactive)
COC(=O)c1oc2ccc(Br)cc2c1NC(=O)CN1CCN(C)CC1 | 4.26% (inactive)
O=C(OCCc1cc2ccccc2c(=O)o1)c1ccco1 | -0.117% (inactive)
O=C(NCc1cnn(-c2ccccc2)c1)C1CCC(=O)N(C2CC2)C1 (stereo not given) | -6.78% (inactive)
OC(Cc1ccccc1)(c1ccccc1)C1CN2CCC1CC2 (stereo not given) | -3.56% (inactive)
CN1CCN(CCC(=O)Nc2ccccc2Cl)CC1 | -8.52% (inactive)
O=C(Cn1c(C(=O)NCCCN2CCOCC2)cc2sccc21)c1ccccc1 | 0.656% (inactive)
COc1ccc(CN(C(=O)c2cnccn2)C(C(=O)Nc2ccc(F)cc2)c2ccccc2)cc1 (stereo not given) | -4.64% (inactive)

Compound | activation (HDL uptake increase)
CN1CCN(CCC(=O)N2c3ccccc3Sc3ccc(Cl)cc32)CC1 | -3.2% (inactive)
CCc1cccc(N(C(=O)c2csnn2)C(C(=O)NC2CCCC2)c2cccnc2)c1 (stereo not given) | 6.32% (inactive)
O=C(NC1CCCCCC1)C1c2ccccc2C(=O)N1CCCN1CCOCC1 (stereo not given) | -1.53% (inactive)
O=C1C2CCCN2C(=O)N1CCCCN1CCN(c2ccccc2)CC1 (stereo not given) | 10.3% (inactive)
Cc1cc(S(=O)(=O)NCCc2ccccc2)c(C)s1 | -1.19% (inactive)
Cc1ccc(NC(=O)c2nc[nH]c2C(=O)NCCN(CCNC(=O)c2[nH]cnc2C(=O)Nc2ccc(C)cc2)CCNC(=O)c2[nH]cnc2C(=O)Nc2ccc(C)cc2)cc1 | 8.14% (inactive)
Cc1ncc(CN2CCC(n3nccc3NC(=O)c3ccccc3)CC2)s1 | 8.83% (inactive)
CC(=O)NC1(C2CCCCC2=O)CCCCC1 (stereo not given) | -3.84% (inactive)
CC(C)C(C)(C#N)NC(=O)CSc1nnc(C(F)(F)F)n1C (stereo not given) | -5.69% (inactive)
Cn1c(=O)oc2cc(S(=O)(=O)NCCN3CCN(c4ccccc4)CC3)ccc21 | -5.09% (inactive)
O=c1[nH]c(C2CCN(S(=O)(=O)c3ccc4c(c3)OCCO4)CC2)nc2c1nnn2Cc1ccc(F)cc1 | -4.95% (inactive)
CCCCn1c(N)c(N(CCOC)C(=O)C2CC(=O)N(Cc3ccco3)C2)c(=O)[nH]c1=O (stereo not given) | 0.156% (inactive)
Cc1c(C(=O)N2CCC(C(N)=O)CC2)sc(N)c1C#N | -8.06% (inactive)
O=C(CCC(=O)N1CCOc2ccc(Cl)cc21)NCCCN1CCN(Cc2ccccc2)CC1 | 4.6% (inactive)
O=C(c1ccc(CS(=O)Cc2ccccc2Cl)o1)N1CCN(c2ccccn2)CC1 (stereo not given) | -16.3% (inactive)
O=C1CCC(=O)N1c1ccc(S(=O)(=O)Nc2cccc(Br)c2)cc1 | -7.52% (inactive)
Cc1ccc(O)c(NC(=S)NC(=O)c2ccc(-c3ccc(Cl)cc3)o2)c1 | -9.38% (inactive)
COC(=O)C1=C(c2ccc(F)cc2OCc2ccccc2)C[C@@H]2CC[C@H]1N2C(=O)N1CCC(O)CC1 | -7.61% (inactive)
O=C(COC(=O)/C=C/c1cccc(Cl)c1)NCCc1ccc(Cl)cc1Cl | -1.95% (inactive)
CC(C)CN(C(=O)CN1C(=O)C2CCCCC2C1=O)c1c(N)n(Cc2ccccc2)c(=O)[nH]c1=O (stereo not given) | -7.25% (inactive)
CC(=O)Oc1ccc2oc(=O)c3c(c2c1)CCCN3C(=O)CN1CCN(c2ncccn2)CC1 | -12.6% (inactive)
O=C1C(=O)N(CNc2cccnc2)c2ccccc21 | -7.96% (inactive)
NNC(=O)Cn1nc(Cc2ccccc2)n(N)c1=O | -4.95% (inactive)
COc1ccccc1-c1nc(SCC(=O)Nc2ccccc2F)n[nH]1 | -24.3% (inactive)
COc1ccccc1C(=O)NNC(=S)NC(=O)c1sc2ccccc2c1Cl | -16.5% (inactive)
